Assay results published in PMC6968712, “SPA: a peptide antagonist that acts as a cell-penetrating peptide for drug delivery” (Drug Delivery, 2019).
Where a SMILES comes first, the peptide text is derived from it. Where no end group is shown, it is not given here. [ ]: non-standard residue; d: D form.

Key:
[1] = tested on: trypsin; test: Enzymatic stability toward trypsin; type: in vitro ADME; conditions: 15 μL 10 mM peptide in 285 μL trypsin solution (10 μg/mL), 37 °C, after incubation for 360 min as printed, RP-HPLC, triplicate
Description: The enzymatic stability of SPA toward trypsin and mice serum was determined following a procedure reported in our previous study (Song et al., [2013]). A portion of 15 μL peptide stock solution (10 mM) was added to 285 μL trypsin solution (10 μg/mL) or 100% serum. […] A portion of 40 μL aliquots were diluted with 80 μL water/acetonitrile (60:40 v/v) containing 1% TFA and analyzed by RP-HPLC (Waters). The peptides were eluted using a liner gradient of 5–95% acetonitrile in 0.1% trifluoroacetic acid at a flow rate of 1 mL/min within 30 min on a C18 column (Waters XBridge Columns, 10 μM, 4.6*250 mm). The remaining full-length peptide concentration was normalized with respect to the initial concentration.

[2] = Enzymatic stability in serum; type: in vitro ADME; conditions: 15 μL 10 mM peptide in 285 μL 100% mice serum, 37 °C, 0–3 h, RP-HPLC, triplicate
Description: The enzymatic stability of SPA toward trypsin and mice serum was determined following a procedure reported in our previous study (Song et al., [2013]). A portion of 15 μL peptide stock solution (10 mM) was added to 285 μL trypsin solution (10 μg/mL) or 100% serum. Incubations were carried out at 37 °C for 0, 0.5, 1, 2 and 3 h in triplicate. A portion of 40 μL aliquots were diluted with 80 μL water/acetonitrile (60:40 v/v) containing 1% TFA and analyzed by RP-HPLC (Waters). The peptides were eluted using a liner gradient of 5–95% acetonitrile in 0.1% trifluoroacetic acid at a flow rate of 1 mL/min within 30 min on a C18 column (Waters XBridge Columns, 10 μM, 4.6*250 mm). The remaining full-length peptide concentration was normalized with respect to the initial concentration.

[3] = tested on: CHO cells; test: LDH leakage assay; type: cell-based; conditions: 1 h, 100% = 0.2% Triton X-100
Description: The LDH leakage was measured using the Cytotoxicity Detection Kit (Roche). CHO cells were seeded at 1 × 10^4 cells/well in 96-well plate 24 h before treatment. After treatment with SPA at various concentrations for 1 h, 40 μL medium was transferred to a 96-well plate and incubated for 15 min with 40 μL reaction mixture, followed by 20 μL stop solution. […] was measured using microplate reader (Thermo scientific) at 490 nm. Untreated cells were defined as no leakage and 100% leakage was defined as total LDH release by lysing cells in 0.2% Triton X-100.

[4] = tested on: Erythrocytes; test: Hemolysis assay; type: cell-based; conditions: mice erythrocytes, even at 200 μM, 1 h, 37 °C
Description: Erythrocytes were obtained from freshly collected mice blood and resuspended in PBS to 4% (V/V). After 100 μL the erythrocyte suspension being seeded in 96-well plate, the cells were incubated with 100 μL peptides solution at different concentrations for 1 h at 37 °C. The plates were centrifuged at 1000 g for 10 min and the released hemoglobin was determined using microplate reader (Thermo scientific) at 450 nm. PBS and 0.1% Triton X-100 were used as agents for 0 and 100% hemolysis, respectively.

[5] = tested on: CHO cells; test: MTT cytotoxicity assay of SPA (24 h); type: cell-based; conditions: various concentrations
Description: Cells were treated with SPA at various concentrations for 24 h. The cytotoxicity of SPA was determined by MTT assay. The absorbance was determined using microplate reader (Thermo scientific) at 570 nm.

[6] = tested on: CHO cells; test: MTT antiproliferative assay of SPA-CPT conjugate; type: cell-based; conditions: treated 1 h, washed, cultured 72 h
Description: CHO, MDA-MB-231and U251 cells were seeded at 5 × 10^3 cells/well in 96-well plates 24 h before treatment, respectively. […] After washing with medium to remove the remaining agents, the cells were cultured for 72 h and the antiproliferative effects of the relevant agents were determined by the MTT assay.

[7] = RP-HPLC retention time as measure of peptide hydrophobicity; type: physicochemical; conditions: Table S1; chromatographic, C18 (Waters XBridge, 4.6*250 mm), linear gradient 5–95% acetonitrile in 0.1% trifluoroacetic acid within 30 min, 1 mL/min
Description: Purity analysis was checked by analytical RP-HPLC (Waters), and the peptides were eluted using a liner gradient of 5–95% acetonitrile in 0.1% trifluoroacetic acid at a flow rate of 1 mL/min within 30 min on a C18 column (Waters XBridge Columns, 10 μM, 4.6*250 mm). The retention time of each peptide was determined when the peak was at its maximum height.

[8] = tested on: CHO cells; test: Flow cytometry assay of cellular uptake; type: cell-based; conditions: 1 h
Description: CHO cells were treated with 10 μM FITC labeled peptides for 1 h, and then the cells were harvested and finally resuspended in PBS after washing twice with PBS. The fluorescence of cells was analyzed on a FACS Caliber. To explore the uptake mechanism of SPA, CHO cells were preincubated at 4 °C and then treated with 10 μM FITC-labeled SPA at 4 °C or 37 °C for 1 h. In experiments with chloroquine, CHO cells were incubated with FITC-labeled SPA and 100 μM chloroquine at 37 °C for 1 h. In experiments with endocytosis inhibitor, cells were pretreated with 10 μg/mL chlorpromazine, 50 μM amiloride or 5 mM methyl-β-cyclodextrin at 37 °C for 0.5 h and then treated with 10 μM FITC-labeled SPA for 1 h. Cells were harvested and analyzed by a FACS Caliber (BD).

CC(C)C[C@H](NC(=O)[C@H](CC(C)C)NC(=O)[C@@H](Cc1c[nH]c2ccccc12)NC(=O)[C@H](Cc1ccccc1)NC(=O)[C@@H](Cc1c[nH]c2ccccc12)NC(=O)[C@H](CCC(N)=O)NC(=O)[C@@H](Cc1c[nH]c2ccccc12)NC(=O)[C@@H]1CCCN1C(=O)[C@H](CCCCN)NC(=O)[C@@H]1CCCN1C(=O)[C@H](N)CCCN=C(N)N)C(N)=O [SPA, [D-Arg^1, D-Trp^5,7,9, Leu^11]Substance P] (H-[dR]PKP[dW]Q[dW]F[dW]LL-NH2)
stability against trypsin (remaining full-length peptide) [1]: not hydrolyzed
stability in serum (remaining full-length peptide) [2]: significantly greater stability in serum than L-SPA
LDH leakage ([3]; 160 μM): 35%
hemolytic activity [4]: low hemolytic activity
cytotoxicity (MTT) [5]: low cytotoxicity
cytotoxicity / antiproliferative effect (MTT) [6]: no notable cytotoxicity

RPKPWQWFWLL-NH2 [L-SPA]
stability against trypsin (remaining full-length peptide) [1]: almost completely degraded
stability in serum (remaining full-length peptide) [2]: SPA exhibited significantly greater stability in serum than L-SPA

CC[C@H](C)[C@H](NC(=O)CN)C(=O)NCC(=O)N[C@@H](C)C(=O)N[C@H](C(=O)N[C@@H](CC(C)C)C(=O)N[C@@H](CCCCN)C(=O)N[C@H](C(=O)N[C@@H](CC(C)C)C(=O)N[C@H](C(=O)N[C@H](C(=O)NCC(=O)N[C@@H](CC(C)C)C(=O)N1CCC[C@H]1C(=O)N[C@@H](C)C(=O)N[C@@H](CC(C)C)C(=O)N[C@H](C(=O)N[C@@H](CO)C(=O)N[C@@H](Cc1c[nH]c2ccccc12)C(=O)N[C@H](C(=O)N[C@@H](CCCCN)C(=O)N[C@@H](CCCNC(=N)N)C(=O)N[C@@H](CCCCN)C(=O)N[C@@H](CCCNC(=N)N)C(=O)N[C@@H](CCC(N)=O)C(=O)N[C@@H](CCC(N)=O)C(N)=O)[C@@H](C)CC)[C@@H](C)CC)[C@@H](C)O)[C@@H](C)O)C(C)C)C(C)C [melittin, reference compound]
LDH leakage ([3]; 50 μM (positive control)): ~100%

FITC-AHX-rPKPwQwFwLL-NH2 [FITC-SPA, SPA labeled with FITC at the N-terminus via an aminohexanoic acid spacer]
retention time [7]: 21.2 min
mean fluorescence on cotreatment with chloroquine ([8]; 10 μM FITC-labeled SPA with 100 μM chloroquine, 37 °C): significantly increased

FITC-AHX-YGRKKRRQRRR-NH2 [FITC-TAT, FITC-labeled cell-penetrating peptide TAT used as uptake comparator, reference compound]
retention time [7]: 16.0 min
cellular uptake efficiency (mean fluorescence intensity) ([8]; 10 μM FITC labeled peptides, flow cytometry): cellular uptake efficiency of SPA was lower than that of TAT
